Experimental data from article PMC8359193, “Summary of reference chemicals evaluated by the fish short‐term reproduction assay, OECD TG229, using Japanese Medaka, Oryzias latipes” (Journal of Applied Toxicology, 2021).

Assays:
Japanese medaka = details: F0 generation, FLCT, cited from earlier work
[1] = test system: Japanese medaka (Oryzias latipes); assay: Fish short-term reproduction assay (FSTRA, OECD TG229), 21-day flow-through exposure; details: for LOEC on VTG induction in male (in molarity) / LOEC for VTG induction in males: hepatic VTG; for LOEC on VTG induction in male (in molarity) / LOEC for VTG induction in males / effect on male GSI, in words / effect on fecundity (number of total eggs), in words: 21-day exposure; for LOEC for VTG induction in males: measured conc.; for effect on male GSI, in words: highest concentration; for Fertility rate (%) / Mortality (%) Female / Mortality (%) Male / Number of fertilized eggs / Number of total eggs / SSC Female / SSC Male / VTG (ng/mg of liver) Female / VTG (ng/mg of liver) Male: 21 days; for GSI Female / GSI Male / HSI Female / HSI Male / Length Female / Length Male / Weight Female / Weight Male: at completion of exposure; for effect on fecundity (number of total eggs), in words: within the test concentrations
Procedure, shortened: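 Run to OECD TG229: mature NIES-R medaka pairs (3♂/3♀ per vessel, 4 vessels per treatment plus dilution water control) were dosed by continuous flow-through for 21 days. Test concentrations were spaced 2- to 5-fold. Daily spawned eggs were counted under the microscope for fertilized versus unfertilized.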

For `CCC(C)(C)c1ccc(O)cc1` [PTH, 4‐tert‐Pentylphenol], the “LOEC on VTG induction” value (Japanese medaka; ref Seki et al. (2003)) is listed as at most 51.1 µg/L, the “LOEC on reproductive impairment” value (Japanese medaka; ref Seki et al. (2003)) is listed as 224 µg/L and the “LOEC on VTG induction in male (in molarity)” value [1] is listed as 590 nM. The “LOEC for VTG induction in males” value [1] was 96.5 µg/L, the “effect on male GSI, in words” value [1] was “significant decreasing” and the “LOEC (in molarity) for male VTG: times higher than that of E2” value ([1]; in vivo) was 14,000 times. The “LOEC on male VTG induction: times smaller than the LOEC for CMP” value ([1]; in vivo) was over 8 times, the “Fertility rate (%)” value ([1]; measured conc. 96.5 μg/L) was 92% and the “Mortality (%) Female” value ([1]; measured conc. 96.5 μg/L) was 8.3%. For the same compound, the “Mortality (%) Male” value ([1]; measured conc. 96.5 μg/L) was 0%, the “Number of fertilized eggs” value ([1]; measured conc. 96.5 μg/L) was 18 and the “Number of total eggs” value ([1]; measured conc. 96.5 μg/L) was 19 ± 6.6 /female/day. The “SSC Female” value ([1]; measured conc. 96.5 μg/L) was 0 ± 0, the “SSC Male” value ([1]; measured conc. 96.5 μg/L) was 98 ± 8.0 and the “VTG (ng/mg of liver) Female” value ([1]; measured conc. 96.5 μg/L) was 1,680 ± 240 ng/mg of liver. The “VTG (ng/mg of liver) Male” value ([1]; measured conc. 96.5 μg/L) was 83.2 ± 106 ng/mg of liver, the “GSI Female” value ([1]; measured conc. 96.5 μg/L) was 9.5% and the “GSI Male” value ([1]; measured conc. 96.5 μg/L) was 0.74%. The “HSI Female” value ([1]; measured conc. 96.5 μg/L) was 4.3%, the “HSI Male” value ([1]; measured conc. 96.5 μg/L) was 2.5% and the “Length Female” value ([1]; measured conc. 96.5 μg/L) was 34.8 mm. For the same compound, the “Length Male” value ([1]; measured conc. 96.5 μg/L) was 35.8 mm, the “Weight Female” value ([1]; measured conc. 96.5 μg/L) was 470 mg and the “Weight Male” value ([1]; measured conc. 96.5 μg/L) was 532 mg. The “Fertility rate (%)” value ([1]; measured conc. 342 μg/L) was 93%, the “Mortality (%) Female” value ([1]; measured conc. 342 μg/L) was 8.3% and the “Mortality (%) Male” value ([1]; measured conc. 342 μg/L) was 0%. The “Number of fertilized eggs” value ([1]; measured conc. 342 μg/L) was 17, the “Number of total eggs” value ([1]; measured conc. 342 μg/L) was 18 ± 3.6 /female/day and the “SSC Female” value ([1]; measured conc. 342 μg/L) was 0 ± 0. The “SSC Male” value ([1]; measured conc. 342 μg/L) was 94 ± 14, the “VTG (ng/mg of liver) Female” value ([1]; measured conc. 342 μg/L) was 2,820 ± 1,540 ng/mg of liver and the “VTG (ng/mg of liver) Male” value ([1]; measured conc. 342 μg/L) was 621 ± 265 ng/mg of liver. For the same compound, the “GSI Female” value ([1]; measured conc. 342 μg/L) was 8.1%, the “GSI Male” value ([1]; measured conc. 342 μg/L) was 0.67% and the “HSI Female” value ([1]; measured conc. 342 μg/L) was 4.5%. For the same compound, the “HSI Male” value ([1]; measured conc. 342 μg/L) was 3.1%, the “Length Female” value ([1]; measured conc. 342 μg/L) was 34.5 mm and the “Length Male” value ([1]; measured conc. 342 μg/L) was 34.7 mm. The “Weight Female” value ([1]; measured conc. 342 μg/L) was 476 mg, the “Weight Male” value ([1]; measured conc. 342 μg/L) was 516 mg and the “Fertility rate (%)” value ([1]; measured conc. 1,100 μg/L) was 74%. For the same compound, the “Mortality (%) Female” value ([1]; measured conc. 1,100 μg/L) was 17%, the “Mortality (%) Male” value ([1]; measured conc. 1,100 μg/L) was 8.3% and the “Number of fertilized eggs” value ([1]; measured conc. 1,100 μg/L) was 10. For the same compound, the “Number of total eggs” value ([1]; measured conc. 1,100 μg/L) was 13 ± 3.6 /female/day, the “SSC Female” value ([1]; measured conc. 1,100 μg/L) was 0 ± 0 and the “SSC Male” value ([1]; measured conc. 1,100 μg/L) was 95 ± 5.0. The “VTG (ng/mg of liver) Female” value ([1]; measured conc. 1,100 μg/L) was 5,770 ± 2,880 ng/mg of liver, the “VTG (ng/mg of liver) Male” value ([1]; measured conc. 1,100 μg/L) was 9,740 ± 800 ng/mg of liver and the “GSI Female” value ([1]; measured conc. 1,100 μg/L) was 8.4%. For the same compound, the “GSI Male” value ([1]; measured conc. 1,100 μg/L) was 0.51%, the “HSI Female” value ([1]; measured conc. 1,100 μg/L) was 4.7% and the “HSI Male” value ([1]; measured conc. 1,100 μg/L) was 4.1%. The “Length Female” value ([1]; measured conc. 1,100 μg/L) was 33.3 mm, the “Length Male” value ([1]; measured conc. 1,100 μg/L) was 34.5 mm and the “Weight Female” value ([1]; measured conc. 1,100 μg/L) was 438 mg. The “Weight Male” value ([1]; measured conc. 1,100 μg/L) was 498 mg and the “effect on fecundity (number of total eggs), in words” value [1] was “significant decrease”.
For `C#C[C@]1(O)CC[C@H]2[C@@H]3CCc4cc(O)ccc4[C@H]3CC[C@@]21C` [EE2, 17α‐Ethynylestradiol], the “concentration that significantly elevated male VTG and reduced fertility” value (Japanese medaka; ref MOE, 2006) is given as 9.26 pg/mL, the “LOEC on VTG induction in male (in molarity)” value [1] is given as 0.06 nM and the “LOEC for VTG induction in males” value [1] is given as 0.0178 µg/L. The “effect on male GSI, in words” value [1] was “significant decreasing”, the “LOEC on male VTG induction: times smaller than the LOEC for CMP” value ([1]; in vivo) was “more than 8,000 times” and the “Fertility rate (%)” value ([1]; measured conc. 17.8 ng/L) was 84%. For the same compound, the “Mortality (%) Female” value ([1]; measured conc. 17.8 ng/L) was 0%, the “Mortality (%) Male” value ([1]; measured conc. 17.8 ng/L) was 0% and the “Number of fertilized eggs” value ([1]; measured conc. 17.8 ng/L) was 15. For the same compound, the “Number of total eggs” value ([1]; measured conc. 17.8 ng/L) was 18 ± 2.3 /female/day, the “SSC Female” value ([1]; measured conc. 17.8 ng/L) was 0 ± 0 and the “SSC Male” value ([1]; measured conc. 17.8 ng/L) was 90 ± 8.1. The “VTG (ng/mg of liver) Female” value ([1]; measured conc. 17.8 ng/L) was 2,170 ± 223 ng/mg of liver, the “VTG (ng/mg of liver) Male” value ([1]; measured conc. 17.8 ng/L) was 68.3 ± 80.4 ng/mg of liver and the “GSI Female” value ([1]; measured conc. 17.8 ng/L) was 10.0%. For the same compound, the “GSI Male” value ([1]; measured conc. 17.8 ng/L) was 0.75%, the “HSI Female” value ([1]; measured conc. 17.8 ng/L) was 4.2% and the “HSI Male” value ([1]; measured conc. 17.8 ng/L) was 2.3%. The “Length Female” value ([1]; measured conc. 17.8 ng/L) was 35.4 mm, the “Length Male” value ([1]; measured conc. 17.8 ng/L) was 35.9 mm and the “Weight Female” value ([1]; measured conc. 17.8 ng/L) was 516 mg. For the same compound, the “Weight Male” value ([1]; measured conc. 17.8 ng/L) was 531 mg, the “Fertility rate (%)” value ([1]; measured conc. 84.9 ng/L) was 88% and the “Mortality (%) Female” value ([1]; measured conc. 84.9 ng/L) was 0%. The “Mortality (%) Male” value ([1]; measured conc. 84.9 ng/L) was 0%, the “Number of fertilized eggs” value ([1]; measured conc. 84.9 ng/L) was 15 and the “Number of total eggs” value ([1]; measured conc. 84.9 ng/L) was 17 ± 4.9 /female/day. The “SSC Female” value ([1]; measured conc. 84.9 ng/L) was 0 ± 0, the “SSC Male” value ([1]; measured conc. 84.9 ng/L) was 88 ± 5.7 and the “VTG (ng/mg of liver) Female” value ([1]; measured conc. 84.9 ng/L) was 3,840 ± 1,370 ng/mg of liver. For the same compound, the “VTG (ng/mg of liver) Male” value ([1]; measured conc. 84.9 ng/L) was 10,900 ± 3,840 ng/mg of liver, the “GSI Female” value ([1]; measured conc. 84.9 ng/L) was 9.5% and the “GSI Male” value ([1]; measured conc. 84.9 ng/L) was 0.60%. The “HSI Female” value ([1]; measured conc. 84.9 ng/L) was 3.7%, the “HSI Male” value ([1]; measured conc. 84.9 ng/L) was 2.7% and the “Length Female” value ([1]; measured conc. 84.9 ng/L) was 35.8 mm. The “Length Male” value ([1]; measured conc. 84.9 ng/L) was 36.3 mm, the “Weight Female” value ([1]; measured conc. 84.9 ng/L) was 498 mg and the “Weight Male” value ([1]; measured conc. 84.9 ng/L) was 548 mg. For the same compound, the “Fertility rate (%)” value ([1]; measured conc. 424 ng/L) was 73%, the “Mortality (%) Female” value ([1]; measured conc. 424 ng/L) was 8% and the “Mortality (%) Male” value ([1]; measured conc. 424 ng/L) was 33%. The “Number of fertilized eggs” value ([1]; measured conc. 424 ng/L) was 8, the “Number of total eggs” value ([1]; measured conc. 424 ng/L) was 10 ± 2.8 /female/day and the “SSC Female” value ([1]; measured conc. 424 ng/L) was 0 ± 0. The “SSC Male” value ([1]; measured conc. 424 ng/L) was 86 ± 6.7, the “VTG (ng/mg of liver) Female” value ([1]; measured conc. 424 ng/L) was 15,100 ± 4,290 ng/mg of liver and the “VTG (ng/mg of liver) Male” value ([1]; measured conc. 424 ng/L) was 23,900 ± 3,760 ng/mg of liver. For the same compound, the “GSI Female” value ([1]; measured conc. 424 ng/L) was 10.4%, the “GSI Male” value ([1]; measured conc. 424 ng/L) was 0.33% and the “HSI Female” value ([1]; measured conc. 424 ng/L) was 3.8%. For the same compound, the “HSI Male” value ([1]; measured conc. 424 ng/L) was 3.4%, the “Length Female” value ([1]; measured conc. 424 ng/L) was 35.3 mm and the “Length Male” value ([1]; measured conc. 424 ng/L) was 35.1 mm. The “Weight Female” value ([1]; measured conc. 424 ng/L) was 507 mg, the “Weight Male” value ([1]; measured conc. 424 ng/L) was 531 mg and the “effect on fecundity (number of total eggs), in words” value [1] was “significant decrease”.
